Experimental data published in patent EP2161029A1, “Composition comprising peptides” (Unilever N.V., priority 2008, dated 2010).
Peptide text beside a SMILES is read from it.

Experimental: The pH of simulated gastric fluid (SGF, 0.15 M NaCl, pH 2.5) was increased to 7.5 with […] (40 mM), and the following compounds were added to adjust the pH to 6.8 and simulate a duodenal-jejunal environment and create simulated small intestinal fluid (SIF): (i) a bile salt mixture containing equimolar quantities (0.125 M) of sodium taurocholate and glycodeoxycholic acid in NaHC03 (1 M), (ii) solutions of pancreatin from porcine pancreas (9 mg/mL) in water was prepared and added at approximately physiological ratios. The pH was adjusted to 6.8 with HCl (0.1 M). Peptides were dissolved in SIF at a final peptide concentration of 50 µM. Aliquots (1 mL) were prepared for sampling at different time points. Simulated intestinal digestion was carried out at 37°C, and aliquots (1 mL) were taken at 0, 5, 15, and 60 min after the start of the experiment. After peptide hydrolysis, digestive enzymes were inactivated at 95°C for 15 min and samples were cooled immediately on ice water and stored at -20 °C until further analysis.
Quantification of dipeptides derived from digestion were performed using a liquid chromatography multiple reaction ion monitoring-mass spectrometry (LC-MRM-MS) method as described van Platerink CJ, Janssen HG, Horsten R, Haverkamp J. Quantification of ACE inhibiting peptides in human plasma using high performance liquid chromatography-mass spectrometry. J Chromatogr B Analyt Technol Biomed Life Sci 2006,830:151-157. Peptide separation was performed on an Atlantis Hilic Silica column (2.1 x 150 mm, 3 µm particle size) and a Micromass Quattro-II (Milford MA, USA) with HP1100LC system (Hewlett-Packard, USA). The gradient started at 100% 0.1% trifluoro acetic acid in Milli-Q water and ended at 70% 0.1 % trifluoro acetic acid in acetonitrile. To support the ionization, a 70/30 mixture of propionic acid and propanol-2 was added postcolumn at a flow rate of 50 mL·min-1. All analyses were conducted on an Alliance 2795 HPLC (Waters, Milford MA, USA) combined with a Quattro Premier triple quadrupole mass spectrometer from the same supplier.
An intestinal stability data set consisting of 228 dipeptides was generated based on the results from the simulated digestion experiments. The area under the time - peptide concentration curve was calculated and used for further analysis and modelling. An ACE inhibitory dipeptide database consisting of 228 dipeptides was constructed.
For each peptide the relative stability (in % of initial dipeptide concentration) was plotted against time and the area under the curve (AUC) was calculated.

Row | Stability observed AUC | AUC [units] | intestinal stability (in words) | Compound
1 | 265±10 |  |  | NC(N)=NCCC[C@H](N)C(=O)N[C@@H](Cc1c[nH]c2ccccc12)C(=O)O [Arg-Trp] (H-Arg-Trp-OH)
2 | 240±12 |  |  | NC(=O)C[C@H](N)C(=O)N[C@@H](Cc1ccc(O)cc1)C(=O)O [Asn-Tyr] (H-Asn-Tyr-OH)
3 |  | > 5900 |  | N[C@@H](CC(=O)O)C(=O)N1CCC[C@H]1C(=O)O [DP, Asp-Pro] (H-Asp-Pro-OH)
4 |  |  | high intestinal stability | N[C@@H](CC(=O)O)C(=O)N[C@@H](Cc1c[nH]c2ccccc12)C(=O)O [DW] (H-Asp-Trp-OH)
5 |  | > 5900 |  | C[C@H](NC(=O)CN)C(=O)O [GA, Gly-Ala] (H-Gly-Ala-OH)
6 |  |  | high intestinal stability | NCC(=O)N[C@@H](CS)C(=O)O [GC] (H-Gly-Cys-OH)
7 |  |  | high intestinal stability | NCC(=O)N[C@@H](CC(N)=O)C(=O)O [GN] (H-Gly-Asn-OH)
8 |  | > 5900 |  | CC(C)[C@H](NC(=O)CN)C(=O)O [GV, Gly-Val] (H-Gly-Val-OH)
9 | 4622±1283 |  |  | N=C(N)NCCC[C@H](NC(=O)CN)C(=O)O [Gly-Arg] (H-Gly-Arg-OH)
10 |  |  | high intestinal stability | O=C(O)[C@H](Cc1c[nH]c2ccccc12)NC(=O)[C@@H]1CCCN1 [PW] (H-Pro-Trp-OH)
11 | 4887±639 |  | most intestinal stable dipeptide | N[C@@H](CO)C(=O)N1CCC[C@H]1C(=O)O [Ser-Pro] (H-Ser-Pro-OH)
12 | 4812±901 |  |  | NC(=O)C[C@H](NC(=O)[C@@H](N)Cc1c[nH]c2ccccc12)C(=O)O [Trp-Asn] (H-Trp-Asn-OH)
13 | 4280±721 |  |  | N[C@@H](Cc1c[nH]c2ccccc12)C(=O)NCC(=O)O [Trp-Gly] (H-Trp-Gly-OH)
14 | 2934±800 |  |  | N[C@@H](Cc1c[nH]c2ccccc12)C(=O)N[C@@H](Cc1c[nH]cn1)C(=O)O [Trp-His] (H-Trp-His-OH)
15 | 4606±129 |  |  | N[C@@H](Cc1c[nH]c2ccccc12)C(=O)N1CCC[C@H]1C(=O)O [Trp-Pro] (H-Trp-Pro-OH)
16 | 4593±1930 |  |  | C[C@H](NC(=O)[C@@H](N)Cc1ccc(O)cc1)C(=O)O [Tyr-Ala]
17 | 3384±475 |  | high stability | N[C@@H](Cc1ccc(O)cc1)C(=O)NCC(=O)O [Tyr-Gly]
18 | 4187±399 |  |  | N[C@@H](Cc1ccc(O)cc1)C(=O)N1CCC[C@H]1C(=O)O [Tyr-Pro] (H-Tyr-Pro-OH)
19 | 373±27 |  |  | CC(C)[C@H](N)C(=O)N[C@@H](Cc1ccc(O)cc1)C(=O)O [Val-Tyr] (H-Val-Tyr-OH)
